Measured values taken from patent US20120107246A1, “METHOTREXATE-MODIFIED NANOPARTICLES AND RELATED METHODS” (WASHINGTON, UNIVERSITY OF, priority 2005, published 2012).

Tests used:
9L cells = assay: leucovorin rescue of 9L cells exposed to free methotrexate; assay type: cell-based, rat
Description: Methotrexate induces apoptosis in cells through inhibition of the folic acid cycle by acting on the enzyme, dihydrofolate reductase (DHFR). The substitution of a […] at position four of the pteridine ring transforms the molecule from a substrate of DHFR to a tight binder. […] Leucovorin (folinic acid) is commonly used in high dose chemotherapy to rescue the folic acid cycle in healthy cells and reduce the deleterious side effect of the therapy. Leucovorin rescues the cell cycle by being actively metabolized into reduced folates, increasing the intracellular concentration of the reduced folates within the cytoplasm. […] Previous studies used leucovorin to rescue MCF-7 and HeLa cells following exposure to free methotrexate, but no studies have been reported in using leucovorin for the 9L cell line. Thus, the first step in this study was to determine whether the 9L cells would respond to leucovorin induced rescue following the cellular exposure to free methotrexate.

[1] = in humans; cited from earlier work
HeLa cells = assay: cell viability (surviving fraction) by cell count; settings: up to 120 hours in culture, nanoparticles 0.01-0.1 mg/mL iron, soluble methotrexate 2 μg/mL
Description: Human breast cancer cells (MCF-7), and human cervical cancer cells (HeLa) were obtained from the Fred Hutchinson Cancer Research Center, Seattle, Wash. Cells were grown in T-75 flasks with RPMI Media (Invitrogen) supplemented with 10% fetal calf serum, 5958 mg/mL HEPES, 300 mg/mL L-Glutamine, 50 ug/mL streptomycin and 50 IU/mL penicillin. Cells were cultured at 37° C. in a humidified atmosphere with 5% CO2 with the medium being changed every third day. The cells were transferred to RPMI-1640 folate free medium (Invitrogen) 24 hours prior to plating. The cells were then subcultured in 24-well plates at a concentration of 25,000 cells/mL in RPMI-1640 folate-free medium. […] In addition, a control media containing soluble methotrexate was prepared at a concentration of 2 μg/mL. Cells were also cultured in 1 mL medium without nanoparticles as the control. The cell culture proceeded for 24, 48, 72, 96, and 120 hours respectively at which time, the cells were washed three times with 1 mL of Hank's Balanced Salt Solution (HBSS, Invitrogen), detached with 500 μL of 0.25% trypsin-EDTA (Sigma), and resuspended in 1 mL of Phosphate Buffered Saline (PBS) supplemented with 10% FBS. Cell viability was determined by cell count via a model Z1 Beckman particle counter.

| Structure (SMILES) | leucovorin concentration at which cells showed continued proliferation (9L cells; 9L cells after 2 hours exposure to methotrexate, 48 hours incubation with LV) [µg/mL] | sufficient concentration of LV to ensure cell rescue (9L cells; 9L cells after methotrexate exposure) [µg/mL] | half-life [1] [h] | reduction in cell viability / cytotoxicity (HeLa cells) |
| --- | --- | --- | --- | --- |
| Nc1nc2c(c(=O)[nH]1)N(C=O)C(CNc1ccc(C(=O)N[C@@H](CCC(=O)O)C(=O)O)cc1)CN2 (stereo partly shown) [leucovorin, Leucovorin (folinic acid)] | ≥ 1 | ~10 |  |  |
| CN(Cc1cnc2nc(N)nc(N)c2n1)c1ccc(C(=O)N[C@@H](CCC(=O)O)C(=O)O)cc1 [methotrexate, Methotrexate] |  |  | 2 to 3 | slightly higher cytotoxicity |
